Test: Mouse maximum tolerable dose experiment (acute toxicity)
Format: in vivo, Kunming mice
Details: for abnormalities in the organs after killed (autopsy) / symptoms of toxic reactions: 5 g/kg intragastric; for abnormalities in the organs after killed (autopsy): after 7 days observation; for symptoms of toxic reactions: fasted for 16 hours; for symptoms of toxic reactions / Death rate: 7 days observation; for Death rate / Death number during observation: 5 g/kg/24 hr intragastric
Procedure: tested samples (YR-1, YR-2) are the same as above.
Strain: Kunming mice; source: Animal Facility of Shanghai Institute of Pharmaceutical Industry; certificate number: Hudonghezhengzi No. 107; animal numbers: 20; Sex: same number of male and female mice; Body weight: 18-21 g; fast time: 16 hours.
Preparation of samples: 5 g/kg (prepared with 5% carboxymethyl cellulose CMC); volume accepted: 0.6 ml/20 g body weight/each time; administration times: once; dosage: 5 g/kg/24 hr
Intragastric Administration
20 mice, 10 male and 10 female, were given YR-1 or YR-2 via intragastric administration, observed manifestation of mice toxic symptom immediately after administration, recorded mice death number.
Observed manifestation of mice toxic symptom immediately after administration, observed twice each day (morning and evening).
Toxic reaction: recorded behaviors of mice, skin, respiration, urination and defecation, appetite, checked if there are abnormal secretions appeared in the nose, eye and mouth.
Observation period: 7 days, killed all the surviving mice after observation period, and autopsied to see if there is any abnormality existed in the mice organs.

| Compound | abnormalities in the organs after killed (autopsy) (Kunming mice) | symptoms of toxic reactions (Kunming mice) | Death rate (female mice) [%] | Death number during observation (female mice, day 1) | Death number during observation (female mice, day 2) | Death number during observation (female mice, day 3) | Death number during observation (female mice, day 4) | Death number during observation (female mice, day 5) | Death number during observation (female mice, day 6) | Death number during observation (female mice, day 7) | Death rate (male mice) [%] | Death number during observation (male mice, day 1) | Death number during observation (male mice, day 2) | Death number during observation (male mice, day 3) | Death number during observation (male mice, day 4) | Death number during observation (male mice, day 5) | Death number during observation (male mice, day 6) | Death number during observation (male mice, day 7) | LD50 at 7 days (both sexes, mouse, in vivo, po, 5 g/kg, Kunming mice, intragastric administration, once) [mg/kg] |
| --- | --- | --- | --- | --- | --- | --- | --- | --- | --- | --- | --- | --- | --- | --- | --- | --- | --- | --- | --- |
| 5-thia-1-aza-bicyclo [4,2,0] octane-2-ene-2-carboxylic acid, 7-[[(2-amino-4-thiazolyl) (methoxy imine) acetyl]amino]-3-methyl-8-oxo-, [[3,3-dimethyl-4,4-dioxy-7-oxo-4-thia-1-aza-bicyclo [3,2,0] heptane-2-group]carbonyloxy]oxy]methyl ester [YR-1] | no abnormalities were observed in the organs | no obvious abnormal symptoms of toxic reactions | 0 | 0 | 0 | 0 | 0 | 0 | 0 | 0 | 0 | 0 | 0 | 0 | 0 | 0 | 0 | 0 |  |
| CON=C(C(=O)NC1C(=O)N2C(C(=O)OCOC(=O)C3N4C(=O)CC4S(=O)(=O)C3(C)C)=C(COC(N)=O)CSC12)c1ccco1 (stereo not shown) [YR-2, 5-thia-1-aza-bicyclo [4,2,0] octane-2-ene-2-carboxylic acid, 7-[[(2-furane (methoxy imine)acetyl)amino]-3-[[(aminocarbonyloxy)oxy]methyl]-8-oxo-, [[3,3-dimethyl-4,4-dioxy-7-oxo-4-thia-1-aza-bicyclo[3,2,0]heptane-2-group]carbonyloxy]oxy]methyl ester] | no abnormalities were observed in the organs | no obvious abnormal symptoms of toxic reactions | 0 | 0 | 0 | 0 | 0 | 0 | 0 | 0 | 0 | 0 | 0 | 0 | 0 | 0 | 0 | 0 | > 5000 |

Source: patent US7750148B2, “Intermediate compound for the production of β-lactamase-resistant cephalosporin ester compounds and salts thereof” (Zhejiang Yongning Pharmaceutical Factory, priority 2003, dated 2010)
